According to US20230123601A1, “PHARMACEUTICAL COMBINATION OF ANTIVIRAL AGENTS TARGETING HBV AND/OR AN IMMUNE MODULATOR FOR TREATMENT OF HBV” (priority 2019, published 2023):

System: HBV
Assay: HBsAg levels in serum of AAV/HBV mice (CLIA)
Format: in vivo, C57BL/6 mice
Set-up: HBsAg levels in serum (Average ± SD): scale not given here
Description: The AAV-HBV mouse model is generated by injecting C57BL/6 mice with recombinant adeno-associated virus harboring a replicable HBV genome (AAV-HBV). The rAAV8-1.3 HBV ayw virus stock was purchased from Beijing FivePlus Molecular Medicine Institute (Beijing, China). The animals (male, aged 4-5 weeks upon arrival) were purchased from SLAC Laboratory Animal Co. Ltd (Shanghai, China), acclimatized in the animal facility for 5-7 days, and then injected with 1×10^11 vector genome of AAV-HBV (diluted in 200 μL of PBS) through the tail vein. Persistence expression of HBV genome can be established after three weeks, with high levels of HBV viral markers including HBV DNA, HBsAg, and HBeAg in mouse serum. With stable HBV viremia and competent immune system of the C57BL/6 mice, the AAV-HBV mouse model was used to evaluate the in vivo anti-HBV efficacy of the compounds. The in-life part of the AAV-HBV study was conducted through contracted service at Covance Pharmaceutical Research and Development (Shanghai) Co. Ltd. (Covance Shanghai) and the post-life analysis using the serum was performed internally at Roche Innovation Center Shanghai (RICS).
Seven days before compound treatment, blood samples were collected for serum preparation (˜15 μL), and based on HBV DNA, HBsAg levels in serum and body weight, the AAV-HBV infected animals were stratified into the different treatment groups.
Saline (Group 01) and anti-HBV ASO of CMP ID NO: 15_1 at 1.5 or 7.5 mg/kg were dosed sub subcutaneously once a week during Day 0-49 on Days 0, 7, 14, 21, 28, 35, 42 and 49. TLR7 agonist of CMP ID NO: VI 100 mg/kg was administered by oral gavage once every other day during Day 0-55 (QOD) or once weekly during Day 0-49 on Days 0, 7, 14, 21, 28, 35, 42 and 49 (QW). The animals were weekly bled via retro-orbital sinus for sample collection throughout the study.
Serum HBsAg levels were determined in the serum of infected AAV-HBV mouse using the HBsAg chemoluminescence immunoassay (CLIA) (Autobio diagnostics Co. Ltd., Zhengzhou, China, Cat. no. CL0310-2), according to the manufacturer's protocol. Briefly, 50 μl of serum was transferred to the antibody coated microtiter plate and 50 μl of enzyme conjugate reagent was added. The plate was incubated for 60 min on a shaker at room temperature before all wells were washed six times with washing buffer using an automatic washer. 25 μl of substrate A and then 25 μl of substrate B was added to each well. The plate was incubated for 10 min at RT before luminescence was measured using an Envision luminescence reader (Perkin Elmer). HBsAg is given in the unit IU/ml; where 1 ng HBsAg=1.14 IU.
To evaluate the combination of the anti-HBV ASO and the TLR7 agonist in an in vivo system, a mouse model of chronic HBV infection was used. In the AAV/HBV mouse model described in the Materials and Method a persistent HBV infection is established resulting in expression of viral markers (HBsAg, HBeAg, HBV DNA) detectable in plasma. The effect on these viral markers upon treatment with the anti-HBV ASO of CMP ID NO: 15_1 (table 2, and FIG. 4) dosed at 1.5 mg/kg or 7.5 mg/kg and the TLR7 agonist of CMP ID NO: VI (table 3) dosed with […] every other day (QOD) or once weekly (QW) in monotherapy or in combination has been evaluated.

CC[C@H](OC(C)=O)[C@@H]1C[C@@H](O)[C@H](n2c(=O)sc3cnc(N)nc32)O1 [CMP ID NO: VI, [(1S)-1-[(2S,4R,5R)-5-(5-amino-2-oxo-thiazolo[4,5-d]pyrimidin-3-yl)-4-hydroxy-tetrahydrofuran-2-yl]propyl] acetate]
HBsAg levels in serum (Average ± SD) (D0, 15_1 1.5 mg/kg weekly, VI 100 mg/kg QOD, or combination of both): 4.14 ± 0.37
HBsAg levels in serum (Average ± SD) (D0, 15_1 1.5 mg/kg weekly, VI 100 mg/kg QW, or combination of both): 4.07 ± 0.44
HBsAg levels in serum (Average ± SD) (D0, 15_1 7.5 mg/kg weekly, VI 100 mg/kg QOD, or combination of both): 4.14 ± 0.37
HBsAg levels in serum (Average ± SD) (D0, 15_1 7.5 mg/kg weekly, VI 100 mg/kg QW, or combination of both): 4.07 ± 0.44
HBsAg levels in serum (Average ± SD) (D7, 15_1 1.5 mg/kg weekly, VI 100 mg/kg QOD, or combination of both): 3.68 ± 1.03
HBsAg levels in serum (Average ± SD) (D7, 15_1 1.5 mg/kg weekly, VI 100 mg/kg QW, or combination of both): 3.72 ± 0.85
HBsAg levels in serum (Average ± SD) (D7, 15_1 7.5 mg/kg weekly, VI 100 mg/kg QOD, or combination of both): 3.68 ± 1.03
HBsAg levels in serum (Average ± SD) (D7, 15_1 7.5 mg/kg weekly, VI 100 mg/kg QW, or combination of both): 3.72 ± 0.85
HBsAg levels in serum (Average ± SD) (D14, 15_1 1.5 mg/kg weekly, VI 100 mg/kg QOD, or combination of both): 3.11 ± 1.35
HBsAg levels in serum (Average ± SD) (D14, 15_1 1.5 mg/kg weekly, VI 100 mg/kg QW, or combination of both): 3.52 ± 0.96
HBsAg levels in serum (Average ± SD) (D14, 15_1 7.5 mg/kg weekly, VI 100 mg/kg QOD, or combination of both): 3.11 ± 1.35
HBsAg levels in serum (Average ± SD) (D14, 15_1 7.5 mg/kg weekly, VI 100 mg/kg QW, or combination of both): 3.52 ± 0.96
HBsAg levels in serum (Average ± SD) (D21, 15_1 1.5 mg/kg weekly, VI 100 mg/kg QOD, or combination of both): 2.62 ± 1.41
HBsAg levels in serum (Average ± SD) (D21, 15_1 1.5 mg/kg weekly, VI 100 mg/kg QW, or combination of both): 3.07 ± 1.22
HBsAg levels in serum (Average ± SD) (D21, 15_1 7.5 mg/kg weekly, VI 100 mg/kg QOD, or combination of both): 2.62 ± 1.41
HBsAg levels in serum (Average ± SD) (D21, 15_1 7.5 mg/kg weekly, VI 100 mg/kg QW, or combination of both): 3.07 ± 1.22
HBsAg levels in serum (Average ± SD) (D28, 15_1 1.5 mg/kg weekly, VI 100 mg/kg QOD, or combination of both): 2.21 ± 1.28
HBsAg levels in serum (Average ± SD) (D28, 15_1 1.5 mg/kg weekly, VI 100 mg/kg QW, or combination of both): 2.65 ± 1.37
HBsAg levels in serum (Average ± SD) (D28, 15_1 7.5 mg/kg weekly, VI 100 mg/kg QOD, or combination of both): 2.21 ± 1.28
HBsAg levels in serum (Average ± SD) (D28, 15_1 7.5 mg/kg weekly, VI 100 mg/kg QW, or combination of both): 2.65 ± 1.37
HBsAg levels in serum (Average ± SD) (D35, 15_1 1.5 mg/kg weekly, VI 100 mg/kg QOD, or combination of both): 1.78 ± 1.18
HBsAg levels in serum (Average ± SD) (D35, 15_1 1.5 mg/kg weekly, VI 100 mg/kg QW, or combination of both): 2.49 ± 1.29
HBsAg levels in serum (Average ± SD) (D35, 15_1 7.5 mg/kg weekly, VI 100 mg/kg QOD, or combination of both): 1.78 ± 1.18
HBsAg levels in serum (Average ± SD) (D35, 15_1 7.5 mg/kg weekly, VI 100 mg/kg QW, or combination of both): 2.49 ± 1.29
HBsAg levels in serum (Average ± SD) (D42, 15_1 1.5 mg/kg weekly, VI 100 mg/kg QOD, or combination of both): 1.57 ± 0.97
HBsAg levels in serum (Average ± SD) (D42, 15_1 1.5 mg/kg weekly, VI 100 mg/kg QW, or combination of both): 2.28 ± 1.28
HBsAg levels in serum (Average ± SD) (D42, 15_1 7.5 mg/kg weekly, VI 100 mg/kg QOD, or combination of both): 1.57 ± 0.97
HBsAg levels in serum (Average ± SD) (D42, 15_1 7.5 mg/kg weekly, VI 100 mg/kg QW, or combination of both): 2.28 ± 1.28
HBsAg levels in serum (Average ± SD) (D49, 15_1 1.5 mg/kg weekly, VI 100 mg/kg QOD, or combination of both): 1.63 ± 0.86
HBsAg levels in serum (Average ± SD) (D49, 15_1 1.5 mg/kg weekly, VI 100 mg/kg QW, or combination of both): 1.9 ± 1.07
HBsAg levels in serum (Average ± SD) (D49, 15_1 7.5 mg/kg weekly, VI 100 mg/kg QOD, or combination of both): 1.63 ± 0.86
HBsAg levels in serum (Average ± SD) (D49, 15_1 7.5 mg/kg weekly, VI 100 mg/kg QW, or combination of both): 1.90 ± 1.07
HBsAg levels in serum (Average ± SD) (D56, 15_1 1.5 mg/kg weekly, VI 100 mg/kg QOD, or combination of both): 1.56 ± 0.77
HBsAg levels in serum (Average ± SD) (D56, 15_1 1.5 mg/kg weekly, VI 100 mg/kg QW, or combination of both): 2.13 ± 1
HBsAg levels in serum (Average ± SD) (D56, 15_1 7.5 mg/kg weekly, VI 100 mg/kg QOD, or combination of both): 1.56 ± 0.77
